Key:
[1] = system: A2780, A2780cisR, A549, A549cisR and HeLa; assay: MTT cytotoxicity assay, all cell lines tested; type: cell-based; details: each of the cell lines, 72-h exposure
Experimental: Human ovarian carcinoma (A2780) and cDDP-resistant A2780 (A2780cisR) cells were cultured in RPMI 1640 with 10% FBS and 100 units penicillin/streptomycin. HeLa cells, adenocarcinomic human alveolar basal epithelial cells (A549) and cDDP-resistant A549 (A549cisR) cells were cultured in DMEM containing 10% FBS and 100 units penicillin/streptomycin. All cells were incubated at 37° C. under 5% CO2. The cDDP-resistant cells, A549cisR and A2780cisR were generated from their parental A549 or A2780 cells. Briefly, A549 or A2780 cells were cultured in complete medium containing 0.5 μg/mL cisplatin at the beginning for the first screening, and the remaining cells were cultured in complete medium containing 1.0 μg/mL cisplatin for at least 4 weeks until the resistance was obtained.
An MTT assay was used to evaluate the cytotoxicity of cDDP and the subject heterodinuclear Pt—Ru compounds Ruthplatin-1, 2, 3 and 4 against A2780, A2780cisR, A549, A549cisR and HeLa. The results of this assay are depicted in Table 1 of FIG. 9. […]
For each of these assays, cells were seeded in 96-well plates at a density of 1,500 cells per well (for A2780, A549 and HeLa) or 2,500 cells per well (for A2780cisR and A549cisR) and were incubated till their confluency reached about 30%. […] The absorbance was tested at 570 and 630 nm. […]

A549cisR cells = assay: MTT cytotoxicity assay, cDDP-resistant A549cisR cells; type: cell-based, human; details: 72-h exposure
Experimental: (§1) Human ovarian carcinoma (A2780) and cDDP-resistant A2780 (A2780cisR) cells were cultured in RPMI 1640 with 10% FBS and 100 units penicillin/streptomycin. HeLa cells, adenocarcinomic human alveolar basal epithelial cells (A549) and cDDP-resistant A549 (A549cisR) cells were cultured in DMEM containing 10% FBS and 100 units penicillin/streptomycin. All cells were incubated at 37° C. under 5% CO2. The cDDP-resistant cells, A549cisR and A2780cisR were generated from their parental A549 or A2780 cells. Briefly, A549 or A2780 cells were cultured in complete medium containing 0.5 μg/mL cisplatin at the beginning for the first screening, and the remaining cells were cultured in complete medium containing 1.0 μg/mL cisplatin for at least 4 weeks until the resistance was obtained. An MTT assay was used to evaluate the cytotoxicity of cDDP and the subject heterodinuclear Pt—Ru compounds Ruthplatin-1, 2, 3 and 4 against A2780, A2780cisR, A549, A549cisR and HeLa. The results of this assay are depicted in Table 1 of FIG. 9. […] The results of this assay are depicted in Table 2 of FIG. 10. […] After incubating for 72 h, the original medium was removed and 0.2 mL fresh medium containing 1 mg/mL MTT was added to each well. After staining for 4 h, the medium was replaced by DMSO. The absorbance was tested at 570 and 630 nm. A control was set as medium without compound. […]

A549 cells = assay: MTT cytotoxicity assay, A549 cells; type: cell-based, human; details: 72-h exposure
Experimental: as §1

A2780cisR cells = assay: MTT cytotoxicity assay, cDDP-resistant A2780cisR cells; type: cell-based, Human; details: 72-h exposure
Experimental: as §1

HeLa cells = assay: MTT cytotoxicity assay, HeLa cells; type: cell-based; details: 72-h exposure
Experimental: as §1

Row | Structure (SMILES) | IC50 values compared with cDDP [1] | RF (resistant factor) = IC50 in A549cisR/IC50 in A549, compared with cisplatin (A549cisR cells; A549/A549cisR cells) | cytotoxicity in A549cisR cells (compared with cisplatin) (A549cisR cells; A549cisR cells) | cytotoxicity in A549 cells (compared with cisplatin) (A549 cells) | RF (resistant factor) = IC50 in A2780cisR/IC50 in A2780 (A2780cisR cells) | activity against the proliferation of HeLa cells (HeLa cells)
1 | Cc1ccc(C(C)C)cc1.[NH3+][Pt-2]([NH3+])([OH])([Cl])([Cl])[O]C(=O)CCc1ccc[n+]([Ru-]2[O]C(=O)C(=O)[O]2)c1 [Ruthplatin-4] | significantly lower than that of cDDP | decreases | significantly increased cytotoxicity | significantly increased cytotoxicity | 2.1 | very active
2 | [NH2][Pt]([NH2])([Cl])[Cl] [cDDP, Cisplatin, reference compound] | – | – | – | – | 17.4 | –

From US9650402B2, “Heterodinuclear platinum-ruthenium complexes, preparation thereof and therapeutic use thereof” (City University of Hong Kong, priority 2015, dated 2017)
